From PubChem BioAssay (NCI) come the findings set out here.

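Following 48 hours of exposure in 96-well plates, responses at five concentrations were used to interpolate endpoints linearly. TGI marks complete inhibition of growth.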

Assay in all cases: NCI anticancer screen, dose series, 48 h
For assay [1], the system named is SNB-19 CNS.
For assay [2], the system named is 786-0 renal.
In assay [3] the test system is SK-MEL-28 melanoma.
Assay [4] deals with MOLT-4 leukemia.
The test system of assay [5] is IGROV1 ovarian.
For assay [6], the system named is UO-31 renal.
Assay [7] relates to MDA-MB-231 breast.
Assay [8] has as its system SNB-75 CNS.
For assay [9], the system named is NCI-H460 lung.
Assay [10] concerns MALME-3M melanoma.

As for `Cc1ccc(-c2c(-c3ccccc3)[nH]c(C)c2C(=O)ONC(=O)c2ccccc2)cc1`, the TGI came to 20.1 µM in assay [1]; 12.6 µM in assay [2]; 27.1 µM in assay [3]; 7.73 µM in assay [4]; 3.15 µM in assay [5]; 3.86 µM in assay [6]. Besides, the TGI was 12.8 µM in assay [7], 7.21 µM in assay [8], 5.21 µM in assay [9] and 24.7 µM in [10].

In the case of `O=C(c1ccccc1)N1C(=O)N(c2ccccc2)C(=Nc2ccccc2)C1=Nc1ccccc1`, the TGI in assay [1], in assay [2], in assay [3], in assay [4], in assay [5] and in assay [6] was over 100 µM in each case. Moreover, the TGI in [7], in assay [8], in assay [9] and in assay [10] was over 100 µM each time.

Take `CC(=O)C(C(=O)c1ccc(C)cc1)[C@H]1OC(C)(C)O[C@H]1[C@H]1COC(C)(C)O1` (stereo not given in full): the TGI in assay [1] was 17.3 µM; in [2], 8.75 µM; in [3], 15.8 µM; in assay [4], over 50 µM; in [5] it was 11 µM; in assay [6] it was 14 µM. For the same compound, the TGI stood at 13.6 µM in assay [7], 10.8 µM in [8], 17.2 µM in assay [9] and 18.4 µM in assay [10].

On to `N=c1oc2ccccc2cc1-c1nc2ccccc2[nH]1`, for which the TGI was over 100 µM in [1]; 28.8 µM in [2]; over 100 µM in assay [3]; over 100 µM in assay [4]; over 100 µM in [5]; 24.8 µM in [6]. Also, the TGI was 57.6 µM in assay [7], over 100 µM in assay [8], over 100 µM in [9] and 72 µM in assay [10].

As to `O=C(O)c1nc2ccc(C(F)(F)F)cc2nc1Nc1ccc(Cl)c(Cl)c1`, the TGI was determined as 10.9 µM in assay [1]; 23.7 µM in assay [2]; 26.6 µM in assay [3]; 17.3 µM in assay [4]; 34.7 µM in [5]; 18.2 µM in [6]. In addition, the TGI was determined as 26.7 µM in assay [7], 29 µM in assay [8], 20.8 µM in [9] and 31 µM in [10].

With `O=[N+]([O-])C(/C(Cl)=C(\Cl)Br)=C(/Cl)SCc1ccccc1`, the TGI in assay [1] worked out at 38.8 µM; in assay [2], 4.06 µM; in [3] it was 5.98 µM; in assay [4] it was 3.35 µM; in assay [5], 13.1 µM; in assay [6] it was 5.73 µM. The TGI turned out to be 7.96 µM in assay [7], 13.5 µM in assay [8], 30.5 µM in assay [9] and 18.7 µM in assay [10].

On to `CC(C)=NOC(=O)CNC(=O)C(Cc1ccccc1)NC(=O)C(C)NC(=O)OC(C)(C)C` (stereo not given), for which the TGI in assay [1], in assay [2], in assay [3], in assay [4], in assay [5] and in assay [6] was over 100 µM in each case. The TGI in assay [7], in [8], in assay [9] and in assay [10] was over 100 µM in each case.
